In patent US12060588B2, “Methods of editing DNA methylation” (Whitehead Institute for Biomedical Research, priority 2016, dated 2024):

Key:
[1] = system: Snrpn promoter (IG-DMR GFP/Pat reporter); assay: Ex vivo activation of the silenced IG-DMR-Snrpn-GFP reporter in mouse tail fibroblasts; assay type: cell-based
Excerpt: FIGS. 7A-7H depict targeted ex vivo and in vivo DNA methylation editing by dCas9-Tet1 to activate a silenced GFP reporter. FIG. 7A provides a schematic diagram illustrating the experimental procedure for the ex vivo activation of a silenced GFP reporter in mouse fibroblast cells. Mouse tail fibroblast cells were derived from a genetically modified mouse line carrying a paternal IG-DMR-Snrpn-GFP allele (IG-DMRGFP/Pat) in the Dlk1-Dio3 locus. The IG-DMR-Snrpn promoter on the paternal allele is hypermethylated so that the GFP reporter is constitutively silenced. The cultured fibroblast cells were infected with lentiviral vectors expressing dCas9-Tet1 and gRNAs to demethylate the Snrpn promoter and activate the GFP reporter. Cells are subject to imaging and FACS analysis. […] Stained in red for Cherry, green for GFP and DAPI for nuclei. Scale bar: 100 um. Note that in order to turn on the Snrpn-GFP methylation reporter, both dCas9-Tet1 and target gRNA lentiviral vectors have to be transduced into the same cells. […] Brains were sliced and analyzed by immunohistochemical approaches. […] FIGS. 7G-7H provide quantification of the percentage of IG-DMR^GFP/Pat cells with GFP activation in Cherry (gRNAs) positive cells in the in vivo lentiviral delivery experiment in the brain (FIG. 7G) and in the skin epidemis (FIG. 7H). […]

[2] = system: Snrpn promoter (IG-DMR GFP/Pat reporter), neurons; assay: In vivo activation of the IG-DMR GFP/Pat reporter in mouse brain (stereotaxic lentiviral delivery)
Excerpt: FIGS. 7A-7H depict targeted ex vivo and in vivo DNA methylation editing by dCas9-Tet1 to activate a silenced GFP reporter. FIG. 7A provides a schematic diagram illustrating the experimental procedure for the ex vivo activation of a silenced GFP reporter in mouse fibroblast cells. Mouse tail fibroblast cells were derived from a genetically modified mouse line carrying a paternal IG-DMR-Snrpn-GFP allele (IG-DMRGFP/Pat) in the Dlk1-Dio3 locus. The IG-DMR-Snrpn promoter on the paternal allele is hypermethylated so that the GFP reporter is constitutively silenced. […] Brains were sliced and analyzed by immunohistochemical approaches. […] FIGS. 7G-7H provide quantification of the percentage of IG-DMR^GFP/Pat cells with GFP activation in Cherry (gRNAs) positive cells in the in vivo lentiviral delivery experiment in the brain (FIG. 7G) and in the skin epidemis (FIG. 7H). […]
To investigate whether the DNA methylation status can be modified in vivo, we infected 3 epidermal sites on the ventral side of an IG-DMR^GFP/Pat transgenic mouse with the dCas9-Tet1 and Snrpn gRNAs (FIG. 14D). […] In addition we infected the brain of an IG-DMR^GFP/Pat transgenic mouse with lentiviral vectors using a stereotaxic setup and analyzed the effect on targeted DNA methylation in brain slices by confocal microscopy. […]

Row | Substance | GFP reporter activation in Cherry (gRNA) positive fibroblasts ([1]; with Snrpn target gRNAs, lentiviral transduction) | GFP reporter activation efficiency in Cherry positive cells (neurons) of the brain in vivo ([2]; with Snrpn gRNAs, stereotaxic lentiviral injection, 3 days) | GFP reporter activation in Cherry (gRNA) positive fibroblasts ([1]; with a sc gRNA) | GFP reporter activation in Cherry positive cells of the brain in vivo ([2]; with a scrambled gRNA)
1 | dC-dT: dCas9 fused to an inactive mutant form of Tet1 (H1672Y, D1674A), SEQ ID NO: 160 | cannot turn on GFP reporter expression | did not activate GFP reporter expression |  | 
2 | dCas9-Tet1: catalytically inactive Cas9 (dCas9) fused through NLS to the Tet1 catalytic domain, SEQ ID NO: 159; lentivirally expressed with gRNAs |  |  | cannot turn on GFP reporter expression | did not activate GFP reporter expression
